In publication PMC11440508, “Dually Labeled Neurotensin NTS1R Ligands for Probing Radiochemical and Fluorescence-Based Binding Assays” (Journal of Medicinal Chemistry, 2024):
“Also recorded” adds a separate entry of the source.

Legend:
[1] = Chemical stability in PBS (pH 7.4); format: physicochemical; settings: PBS pH 7.4, room temperature, up to 48 h, RP-HPLC
Description: The chemical stability of peptides 13 and 18 was investigated in PBS (adjusted to pH 7.4) at 22 °C in the dark. The incubation was started by the addition of 15 μL of a 1 mM stock solution (solvent: DMSO) to 135 μL of PBS to yield a concentration of 100 μM. After periods of 0, 6, 24, and 48 h, an aliquot (25 μL) was removed and added to 25 μL of acetonitrile/0.04% aqueous TFA 1:9 v/v to obtain a peptide solution with a concentration of 50 μM. 20 μL of this solution were subjected to analytical RP-HPLC analysis using the same system and conditions as described under Analytical HPLC with the following gradient: 0–14 min: acetonitrile/0.04% aqueous TFA 10:90–30:70, 14–15 min: 30:70–95:5, 15–20 min: 95:5 (isocratic). A 1:1 mixture of PBS and acetonitrile/0.04% aqueous TFA 1:9 v/v (20 μL) was analyzed to obtain the blank chromatogram.

NTS1R [2] = molecular target: T1, NTS1R (Homo sapiens, UniProt P30989); test: Fluorescence anisotropy (FA) equilibrium saturation binding at hNTS1R-displaying BBVs; set-up: NlucC (C-terminal fragment of nanoluciferase, 11 amino acids) (C); made in house; host or cells: Sf9 insect cells, baculovirus (pIMACE-CMVintP10-hNTS1R-Nluc, DH10MultiBac); budded baculovirus particles; settings: NTS1R-BBV, 27 °C
Description: FA-based NTS1R binding studies with 13 and 18 were performed at hNTS1R displaying budded baculovirus particles (termed BBVs below), which were obtained from Sf9 insect cells following the procedure reported for the preparation of neuropeptide Y Y1R displaying BBVs.[61] The obtained viruses were collected by centrifugation at 1600g for 10 min, and the virus titer was determined with an image-based cell-size estimation assay as described elsewhere.[62] The viruses were amplified using a multiplicity of infection (MOI) between 0.01 and 0.1 until a high-titer baculovirus stock (virus concentration of at least 1.0 × 10^8 infectious viral particles/mL) was acquired. To produce BBV preparations with a high receptor density, Sf9 cells with a density of 1.9 × 10^6 cells/mL were infected with an MOI of 3 and the BBVs were collected by centrifugation 63 h after the infection, when the cell viability was <30%. […]
(§1) FA measurements were performed with a Synergy NEO multimode plate reader (BioTek, Winooski, VT) and black, half area, flat bottom polystyrene nonbinding surface (NBS) 96-well plates (product no. 3993; Corning, Corning, NY). Polarizing excitation (530 ± 15 nm) and dual emission (590 ± 17.5 nm) filters with a dichroic mirror were used, allowing the simultaneous detection of parallelly and perpendicularly polarized fluorescence emission after polarizing beam splitter. […]

NTS1R [3] = molecular target: T1, NTS1R; test: Fluorescence anisotropy (FA) association and dissociation kinetics at hNTS1R-displaying BBVs; format: binding; set-up: NlucC (C-terminal fragment of nanoluciferase, 11 amino acids) (C); made in house; host or cells: Sf9 insect cells, baculovirus (pIMACE-CMVintP10-hNTS1R-Nluc, DH10MultiBac); budded baculovirus particles; settings: NTS1R-BBV, 27 °C; for kon: from model fit, read-out: kon [min^–1 nM^–1] (converted); for koff: read-out: koff [min^–1] (converted)
Description: FA-based NTS1R binding studies with 13 and 18 were performed at hNTS1R displaying budded baculovirus particles (termed BBVs below), which were obtained from Sf9 insect cells following the procedure reported for the preparation of neuropeptide Y Y1R displaying BBVs.[61] The obtained viruses were collected by centrifugation at 1600g for 10 min, and the virus titer was determined with an image-based cell-size estimation assay as described elsewhere.[62] The viruses were amplified using a multiplicity of infection (MOI) between 0.01 and 0.1 until a high-titer baculovirus stock (virus concentration of at least 1.0 × 10^8 infectious viral particles/mL) was acquired. To produce BBV preparations with a high receptor density, Sf9 cells with a density of 1.9 × 10^6 cells/mL were infected with an MOI of 3 and the BBVs were collected by centrifugation 63 h after the infection, when the cell viability was <30%. The BBVs were concentrated 40-fold by centrifugation at 48,000g at 4 °C for 40 min, washed with ice-cold DPBS (without supplements), resuspended, and homogenized using a 0.3 mm diameter needle (Sterican, B. Braun, Melsungen, Germany). Aliquots of the BBV preparations were stored at −90 °C until use.
as §1, with “splitter. All measurements were performed at 27 °C. For all experiments, DPBS2 was used as binding buffer.” for “splitter.”
25 μL of a 4-fold concentrated (compared to the final concentration) solution of 13 or 18 (final concentrations were 0.3 and 1 nM for both ligands) and 25 μL of DPBS2 were premixed in the 96-well plate followed by the addition of 50 μL of BBV suspension (used in six different concentrations; each was combined with the two ligand concentrations) to start the association. […] This enabled shorter time intervals between the read cycles (the measuring time for one cycle, comprising 4 wells, was 6 s; 100 read cycles were carried out). […] Immediately after the addition of SR142948, FA signals were measured for 10 min (within this time period, the dissociation was complete and a plateau was reached, respectively). Equilibrium binding was analyzed using the FA signals at 10 min. Fluorescence intensities were processed as previously reported[61] using the in-house developed software Aparecium 2.0.20 (http://www.gpcr.ut.ee/software.html).[63] […]

T1 sequence (P30989 whole entry, the tested form may be a part): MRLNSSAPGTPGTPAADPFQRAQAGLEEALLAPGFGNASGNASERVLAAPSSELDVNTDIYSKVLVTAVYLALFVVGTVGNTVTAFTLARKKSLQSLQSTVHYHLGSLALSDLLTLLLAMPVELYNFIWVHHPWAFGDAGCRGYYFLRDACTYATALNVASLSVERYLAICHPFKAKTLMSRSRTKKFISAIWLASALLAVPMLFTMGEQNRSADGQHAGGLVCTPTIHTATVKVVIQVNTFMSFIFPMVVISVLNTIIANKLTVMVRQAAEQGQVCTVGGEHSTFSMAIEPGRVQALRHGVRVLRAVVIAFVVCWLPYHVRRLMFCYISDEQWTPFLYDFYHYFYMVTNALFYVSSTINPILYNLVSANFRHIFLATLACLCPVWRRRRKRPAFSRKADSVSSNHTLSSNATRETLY

SMILES	chemical stability in PBS [1]	Kd (NTS1R [2])	kon (NTS1R [3])	koff (NTS1R [3])
CCC(=O)NCCCCNC(=O)N=C(N)NCCC[C@H](NC(=O)[C@@H]1CCCN1C(=O)[C@@H](NC(=O)CCc1cn(CCCNC(=O)c2ccc(-c3c4ccc(=[N+](C)C)cc-4oc4cc(N(C)C)ccc34)c(C(=O)[O-])c2)nn1)C1CCNCC1)C(=O)N[C@@H](CCCNC(=N)N)C(=O)N1CCC[C@H]1C(=O)N[C@@H](Cc1ccc(O)cc1)C(=O)N[C@H](C(=O)N[C@@H](CC(C)C)C(=O)O)[C@@H](C)CC [Compound 13, N^α-(3-(1-N-((1-Carboxylato-2-(6-(dimethylamino)-3-(dimethyliminio)-3H-xanthen-9-yl)phen-5-yl)1-oxomethyl)aminoprop-3-yl-1H-1,2,3-triazol-4-yl)propanoyl)-2-(piperidin-4-yl)-Gly-Pro-N^ω-[(4-(N-propanoyl)aminobutyl)aminocarbonyl]Arg-Arg-Pro-Tyr-Ile-Leu Tris(hydrotrifluoroacetate)]	high stability; also recorded: very slow degradation observable after 24 h	1.3 ± 0.1 nM	1.67e+07 M⁻¹ s⁻¹	0.0102 s⁻¹
CCC(=O)NCCCCNC(=O)NC(=N)NCCC[C@H](NC(=O)[C@@H]1CCCN1C(=O)[C@@H](NC(=O)CCc1cn(CCCNC(=O)CCC#Cc2ccc3c(c2)C(C)(C)C2=C4C=C5C6=[N+](CCC5OC4CCN23)c2ccc(S(=O)(=O)[O-])cc2C6(C)C)nn1)C1CCNCC1)C(=O)N[C@@H](CCCNC(=N)N)C(=O)N1CCC[C@H]1C(=O)N[C@H](C(=O)N[C@H](C(=O)N[C@@H](CC(C)C)C(=O)O)[C@@H](C)CC)C(C)(C)c1ccc(O)cc1 (stereo partly drawn) [Compound 18, N^α-(3-(N-(1-(8-Sulfonato-5,5,27,27-tetramethyl-16-oxa-20-aza-12-azoniaheptacyclo[15.11.0.03,15.04,12.06,11.020,28.021,26]octacosa-1(28),2,4(12),6(11),7,9,21(26),22,24-nonaen-24-yl)-5-oxopentyn-5-yl)-1-aminoprop-3-yl-1H-1,2,3-triazol-4-yl)propanoyl)-2-(piperidin-4-yl)-Gly-Pro-N^ω-[(4-(N-propanoyl)aminobutyl)aminocarbonyl]Arg-Arg-Pro-β,β-dimethyl-L-Tyr-Ile-Leu Tris(hydrotrifluoroacetate)]	highly stable over 48 h; also recorded: no decomposition	1.5 ± 0.1 nM	2.33e+07 M⁻¹ s⁻¹	0.00933 s⁻¹
